# Laboratory results taken from paper PMC4413647, “Simultaneous targeting of androgen receptor (AR) and MAPK-interacting kinases (MNKs) by novel retinamides inhibits growth of human prostate cancer cell lines” (Oncotarget, 2014).
# Tested on: PWR-1E cells
# Assay: MTT cell proliferation assay, 7 d, PWR-1E
# Format: cell-based
# Conditions: Homo sapiens, 168 h, immortalized untransformed prostate cells, 7 d treatment
# Source text: Androgen-dependent (LNCaP), androgen-independent (PC-3) and castration resistant (C4-2B and 22Rv1) human prostate carcinoma cells were procured from American Type Culture Collection, Manassas, VA, USA and maintained in RPMI 1640 media (Gibco-Life Technologies, Grand Island, NY, USA) supplemented with 10% fetal bovine serum and 1% penicillin/streptomycin. […] Immortalized untransformed prostate epithelial cells, PWR1E from American Type Culture Collection were maintained in serum-free Keratinocyte media (Gibco) supplemented with epidermal growth factor and bovine pituitary extract. All cell lines were maintained in a 37 °C/5% CO2 humidified atmosphere.
# Cell proliferation assay was performed as described previously. For cell growth experiment, cells were treated with the NRs for 7 days. MTT assay was performed at the end of the experiment. Calculations of combination indices were done using the Calcusyn program (Biosoft, Cambridge, United Kingdom). For colony formation assay, cells were plated 1000 per well in complete media and allowed to adhere for 24 h. The next day cells were treated with indicated compounds (5 μM). After 24 h compound containing media were removed, and cells were allowed to form colonies in complete media. Approximately 2 weeks later the colonies were fixed, stained with 0.5% crystal violet (sigma) for 30 min and counted manually. Results represent the mean ± standard deviation of three independent experiments.
compound,measurement,value
CC1=C(/C=C/C(C)=C/C=C/C(C)=C/C(=O)Nc2ccc(F)cc2)C(C)(C)CCC1n1ccnc1 (racemic) [VNLG-152],GI50,47.9 µM
